{
  "source": "patent US20230058171A1",
  "about": "“NEW ORAL PHARMACEUTICAL COMPOSITION FOR CANCER THERAPY” (BOEHRINGER INGELHEIM INTERNATIONAL GMBH, priority 2021, published 2023)",
  "assay": "Preliminary pharmacokinetics in trial 1403-0001 (Arm A D1 q3w, Arm B D1 D8 q4w)",
  "type": "in vivo, human",
  "details": "for % AUCtz-∞ / AUC0-∞, norm / CL/F / Cmax, norm / AUC(0-inf) / Cmax / Vd/F / half-life: gMean; for Cmax, norm (gMean) / % AUCtz-∞ (gMean) / AUC0-∞, norm, gMean (gCV [%]) / CL/F (gMean): Arm A D1 q3w; for AUC(0-inf) / Cmax / Vd/F / half-life / Tmax: human, plasma, oral; for AUC(0-inf): read-out: AUC0-∞; for Cmax: read-out: Cmax; for Vd/F: read-out: Vz/F; for half-life: read-out: t1/2 (converted); for Tmax: median, read-out: tmax",
  "excerpt": "Preliminary PK data were available from the first 45 treated patients in study 1403-0001. The exploratory PK analysis is based on planned blood sampling time-points and the results are subject to change because not all samples from these patients have been analyzed yet. Therefore, AUCs may be incomplete. In addition, information on the absorption, distribution, and elimination of the MDM2 antagonist of formula I are descriptive given the limited exploratory PK results available up to this point in time.\nConsequently the preliminary PK results support the dose selection of 45 mg (and alternatively even of 30 mg) combined with the once in three weeks (D1 q3w) dose regimen. The tmax of the MDM2 antagonist of formula I is generally between 4 and 6 hours after tablet intake.",
  "key": {"[1]": {"details": "5 mg, Day 1, D1 D8 q4w (Arm B), N=3"}, "[2]": {"details": "5 mg, Day 8, D1 D8 q4w (Arm B), N=3"}, "[3]": {"details": "10 mg, Day 1, D1 D8 q4w (Arm B), N=3"}, "[4]": {"details": "10 mg, Day 8, D1 D8 q4w (Arm B), N=3"}, "[5]": {"details": "15 mg, Day 1, D1 D8 q4w (Arm B), N=3"}, "[6]": {"details": "15 mg, Day 8, D1 D8 q4w (Arm B), N=2"}, "[7]": {"details": "20 mg, Day 1, D1 D8 q4w (Arm B), N=3"}, "[8]": {"details": "20 mg, Day 8, D1 D8 q4w (Arm B), N=3"}, "[9]": {"details": "30 mg, Day 1, D1 D8 q4w (Arm B), N=4"}, "[10]": {"details": "30 mg, Day 8, D1 D8 q4w (Arm B), N=3"}, "[11]": {"details": "45 mg, Day 1, D1 D8 q4w (Arm B), N=2"}, "[12]": {"details": "60 mg, Day 1, D1 D8 q4w (Arm B), N=2"}},
  "note": "Where two headings read alike, the source gives them in different places.",
  "data": [
    {"smiles": "Cc1c(C(=O)O)ccc2c3n(nc12)[C@@H]1[C@H](C3)N(CC2CC2)[C@@]2(C(=O)Nc3cc(Cl)ccc32)[C@H]1c1cccc(Cl)c1F", "note": "[MDM2-antagonist of formula I, (2′S,3′S,3a'S,10a'S)-6-chloro-3′-(3-chloro-2-fluorophenyl)-1′-(cyclopropylmethyl)-6′-methyl-2-oxo-1,2,3′,3a′,10′,10a′-hexahydro-1′H-spiro[indole-3,2′-pyrrolo[2′,3′:4,5]pyrrolo[1,2-b]indazole]-7′-carboxylic acid]", "values": [
      {"measurement": "% AUCtz-∞", "setting": "[1]", "value": 10.2, "unit": "%"},
      {"measurement": "AUC0-∞, norm", "setting": "[1]", "value": 3530, "unit": "nmol·h/L/mg"},
      {"measurement": "CL/F", "setting": "[1]", "value": 7.99, "unit": "mL/min"},
      {"measurement": "Cmax, norm", "setting": "[1]", "value": 51.9, "unit": "nmol/L/mg"},
      {"measurement": "% AUCtz-∞", "setting": "[2]", "value": 30.2, "unit": "%"},
      {"measurement": "AUC0-∞, norm", "setting": "[2]", "value": 3860, "unit": "nmol·h/L/mg"},
      {"measurement": "CL/F", "setting": "[2]", "value": 7.31, "unit": "mL/min"},
      {"measurement": "Cmax, norm", "setting": "[2]", "value": 67.2, "unit": "nmol/L/mg"},
      {"measurement": "% AUCtz-∞", "setting": "[3]", "value": 10.8, "unit": "%"},
      {"measurement": "AUC0-∞, norm", "setting": "[3]", "value": 5230, "unit": "nmol·h/L/mg"},
      {"measurement": "CL/F", "setting": "[3]", "value": 5.39, "unit": "mL/min"},
      {"measurement": "Cmax, norm", "setting": "[3]", "value": 63.8, "unit": "nmol/L/mg"},
      {"measurement": "% AUCtz-∞", "setting": "[4]", "value": 31.6, "unit": "%"},
      {"measurement": "AUC0-∞, norm", "setting": "[4]", "value": 4840, "unit": "nmol·h/L/mg"},
      {"measurement": "CL/F", "setting": "[4]", "value": 5.82, "unit": "mL/min"},
      {"measurement": "Cmax, norm", "setting": "[4]", "value": 71.4, "unit": "nmol/L/mg"},
      {"measurement": "% AUCtz-∞", "setting": "[5]", "value": 2.89, "unit": "%"},
      {"measurement": "AUC0-∞, norm", "setting": "[5]", "value": 2520, "unit": "nmol·h/L/mg"},
      {"measurement": "CL/F", "setting": "[5]", "value": 11.2, "unit": "mL/min"},
      {"measurement": "Cmax, norm", "setting": "[5]", "value": 55.4, "unit": "nmol/L/mg"},
      {"measurement": "% AUCtz-∞", "setting": "[6]", "value": 14.8, "unit": "%"},
      {"measurement": "AUC0-∞, norm", "setting": "[6]", "value": 1720, "unit": "nmol·h/L/mg"},
      {"measurement": "CL/F", "setting": "[6]", "value": 16.4, "unit": "mL/min"},
      {"measurement": "Cmax, norm", "setting": "15 mg, Day 8, D1 D8 q4w (Arm B), N=3", "value": 51.7, "unit": "nmol/L/mg"},
      {"measurement": "% AUCtz-∞", "setting": "[7]", "value": 8.63, "unit": "%"},
      {"measurement": "AUC0-∞, norm", "setting": "[7]", "value": 4440, "unit": "nmol·h/L/mg"},
      {"measurement": "CL/F", "setting": "[7]", "value": 6.34, "unit": "mL/min"},
      {"measurement": "Cmax, norm", "setting": "[7]", "value": 68.4, "unit": "nmol/L/mg"},
      {"measurement": "% AUCtz-∞", "setting": "[8]", "value": 25.9, "unit": "%"},
      {"measurement": "AUC0-∞, norm", "setting": "[8]", "value": 3050, "unit": "nmol·h/L/mg"},
      {"measurement": "CL/F", "setting": "[8]", "value": 9.22, "unit": "mL/min"},
      {"measurement": "Cmax, norm", "setting": "[8]", "value": 60.9, "unit": "nmol/L/mg"},
      {"measurement": "% AUCtz-∞", "setting": "[9]", "value": 6.72, "unit": "%"},
      {"measurement": "AUC0-∞, norm", "setting": "[9]", "value": 2660, "unit": "nmol·h/L/mg"},
      {"measurement": "CL/F", "setting": "[9]", "value": 10.6, "unit": "mL/min"},
      {"measurement": "Cmax, norm", "setting": "[9]", "value": 48.0, "unit": "nmol/L/mg"},
      {"measurement": "% AUCtz-∞", "setting": "[10]", "value": 18.9, "unit": "%"},
      {"measurement": "AUC0-∞, norm", "setting": "[10]", "value": 2160, "unit": "nmol·h/L/mg"},
      {"measurement": "CL/F", "setting": "[10]", "value": 13.0, "unit": "mL/min"},
      {"measurement": "Cmax, norm", "setting": "[10]", "value": 44.3, "unit": "nmol/L/mg"},
      {"measurement": "% AUCtz-∞", "setting": "[11]", "value": 4.72, "unit": "%"},
      {"measurement": "AUC0-∞, norm", "setting": "[11]", "value": 2150, "unit": "nmol·h/L/mg"},
      {"measurement": "CL/F", "setting": "[11]", "value": 13.1, "unit": "mL/min"},
      {"measurement": "Cmax, norm", "setting": "[11]", "value": 51.7, "unit": "nmol/L/mg"},
      {"measurement": "% AUCtz-∞", "setting": "[12]", "value": 7.08, "unit": "%"},
      {"measurement": "AUC0-∞, norm", "setting": "[12]", "value": 1460, "unit": "nmol·h/L/mg"},
      {"measurement": "CL/F", "setting": "[12]", "value": 19.3, "unit": "mL/min"},
      {"measurement": "Cmax, norm", "setting": "[12]", "value": 32.7, "unit": "nmol/L/mg"},
      {"measurement": "Cmax, norm", "setting": "60 mg, Day 8, D1 D8 q4w (Arm B), N=2", "value": 31.5, "unit": "nmol/L/mg"},
      {"measurement": "Cmax, norm (gMean)", "setting": "20 mg, N=2", "value": 58.2, "unit": "nmol/L/mg"},
      {"measurement": "% AUCtz-∞ (gMean)", "setting": "30 mg, N=3", "value": 24.6, "unit": "%"},
      {"measurement": "AUC0-∞, norm, gMean (gCV [%])", "setting": "30 mg, N=3", "value": "3760 (46.8) nmol*h/L/mg"},
      {"measurement": "CL/F (gMean)", "setting": "30 mg, N=3", "value": 7.50, "unit": "mL/min"},
      {"measurement": "Cmax, norm (gMean)", "setting": "30 mg, N=3", "value": 96.4, "unit": "nmol/L/mg"},
      {"measurement": "% AUCtz-∞ (gMean)", "setting": "45 mg, N=6", "value": 29.2, "unit": "%"},
      {"measurement": "AUC0-∞, norm, gMean (gCV [%])", "setting": "45 mg, N=6", "value": "3040 (53.6) nmol*h/L/mg"},
      {"measurement": "CL/F (gMean)", "setting": "45 mg, N=6", "value": 9.28, "unit": "mL/min"},
      {"measurement": "Cmax, norm (gMean)", "setting": "45 mg, N=6", "value": 60.2, "unit": "nmol/L/mg"},
      {"measurement": "% AUCtz-∞ (gMean)", "setting": "50 mg, N=4", "value": 19.7, "unit": "%"},
      {"measurement": "AUC0-∞, norm, gMean (gCV [%])", "setting": "50 mg, N=4", "value": "6280 (37.3) nmol*h/L/mg"},
      {"measurement": "CL/F (gMean)", "setting": "50 mg, N=4", "value": 4.49, "unit": "mL/min"},
      {"measurement": "Cmax, norm (gMean)", "setting": "50 mg, N=4", "value": 74.8, "unit": "nmol/L/mg"},
      {"measurement": "% AUCtz-∞ (gMean)", "setting": "60 mg, N=6", "value": 3.71, "unit": "%"},
      {"measurement": "AUC0-∞, norm, gMean (gCV [%])", "setting": "60 mg, N=6", "value": "2710 (33.4) nmol*h/L/mg"},
      {"measurement": "CL/F (gMean)", "setting": "60 mg, N=6", "value": 10.4, "unit": "mL/min"},
      {"measurement": "Cmax, norm (gMean)", "setting": "60 mg, N=7", "value": 54.5, "unit": "nmol/L/mg"},
      {"measurement": "% AUCtz-∞ (gMean)", "setting": "80 mg, N=2", "value": 2.54, "unit": "%"},
      {"measurement": "AUC0-∞, norm, gMean (gCV [%])", "setting": "80 mg, N=2", "value": "2570 (29.2) nmol*h/L/mg"},
      {"measurement": "CL/F (gMean)", "setting": "80 mg, N=2", "value": 11.0, "unit": "mL/min"},
      {"measurement": "Cmax, norm (gMean)", "setting": "80 mg, N=2", "value": 49.2, "unit": "nmol/L/mg"},
      {"measurement": "AUC(0-inf)", "setting": "[1]", "value": 17.6, "unit": "µM·h"},
      {"measurement": "Cmax", "setting": "[1]", "value": 260, "unit": "nM"},
      {"measurement": "Vd/F", "setting": "[1]", "value": 38.2, "unit": "L"},
      {"measurement": "half-life", "setting": "[1]", "value": 55.3, "unit": "h"},
      {"measurement": "Tmax", "setting": "[1]", "value": 4, "unit": "h"},
      {"measurement": "AUC(0-inf)", "setting": "[2]", "value": 19.3, "unit": "µM·h"},
      {"measurement": "Cmax", "setting": "[2]", "value": 336, "unit": "nM"},
      {"measurement": "Vd/F", "setting": "[2]", "value": 29.2, "unit": "L"},
      {"measurement": "half-life", "setting": "[2]", "value": 46.2, "unit": "h"},
      {"measurement": "Tmax", "setting": "[2]", "value": 4, "unit": "h"},
      {"measurement": "AUC(0-inf)", "setting": "[3]", "value": 52.3, "unit": "µM·h"},
      {"measurement": "Cmax", "setting": "[3]", "value": 638, "unit": "nM"}
    ]}
  ]
}
